Test results: US11076595B2, “1-(n,n-disubstituted carbamoyl) 4-(substituted sulfonyl)triazolin-5-one derivative, 4-(n,n-disubstituted carbamoyl) 1-(substituted sulfonyl)triazolin-5-one derivative, and herbicide containing said derivative as active ingredient” (HOKKO CHEMICAL INDUSTRY CO., LTD., priority 2017, dated 2021)

Columns and labels:
Format in all cases: in vivo
[1] = system: Echinochloa crus-galli; experiment: Test Example 11: herbicidal effect test by soil treatment in paddy field; conditions: 120 g/10a active ingredient, 14 days after treatment
Outline: (§1)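 Weed suppression rate (%) was calculated as (1 − mean treated dry weight / mean untreated dry weight) × 100 at 14 days after treatment, two replicates per plot. Seeds were sown at 0–1 cm in flooded (about 3 cm) puddled paddy soil and treated immediately at 120 g active ingredient per 10 are.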

[2] = system: Lindernia pyxidaria; experiment: as above; conditions: 120 g/10a active ingredient, 14 days after treatment
Outline: as §1

[3] = system: Monochoria vaginalis; experiment: as above; conditions: 120 g/10a active ingredient, 14 days after treatment
Outline: as §1

[4] = system: Scirpus juncoides; experiment: as above; conditions: 120 g/10a active ingredient, 14 days after treatment
Outline: as §1

[5] = system: Echinochloa crus-galli; experiment: Test Example 12: herbicidal effect test by treatment during growing period in paddy field; conditions: 120 g/10a; treatment seven days after sowing in flooded paddy pot; assessed 14 days after treatment
Outline: (§2)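 Puddled, fertilized paddy soil in Wagner pots, sown with 30 seeds per species at 0–1 cm and flooded to ~3 cm in a glass greenhouse. Emulsifiable concentrate dripped into water 7 days after sowing at 120 g a.i. per 10 are. Suppression % from dry weight vs untreated, 14 days post-treatment, two replicates.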

[6] = system: Lindernia pyxidaria; experiment: as above; conditions: 120 g/10a; treatment seven days after sowing in flooded paddy pot; assessed 14 days after treatment
Outline: as §2

[7] = system: Monochoria vaginalis; experiment: as above; conditions: 120 g/10a; treatment seven days after sowing in flooded paddy pot; assessed 14 days after treatment
Outline: as §2

[8] = system: Scirpus juncoides; experiment: as above; conditions: 120 g/10a; treatment seven days after sowing in flooded paddy pot; assessed 14 days after treatment
Outline: as §2

[9] = system: Chenopodium album; experiment: Test Example 14: herbicidal effect test by foliage treatment in upland field; conditions: 7 days after sowing, 120 g/10a, 14 days after treatment
Protocol: (§3) A pot having a size of 36 cm^2 was filled with field soil (alluvial soil) and after uniformly mixing the soil of the surface layer of 1 cm with 20 grains of each weed seed of crabgrass, Echinochloa crus-galli, Chenopodium album and Amaranthus viridis, the surface layer was pressed lightly. Seven Days after the sowing, an emulsifiable concentrate prepared according to Formulation Example 15 by using the compound shown in Table 12 below was diluted with water, and the water-diluted formulation was sprayed on the soil surface at a ratio of 100 liter per 10 are. The application rate of the active ingredient, by conversion, corresponded to 120 g per 10 are. Fourteen Days after the formulation treatment, the herbicidal effect was evaluated by the same criteria as in Test Example 11.

[10] = system: crabgrass; experiment: as above; conditions: 7 days after sowing, 120 g/10a, 14 days after treatment
Protocol: as §3

[11] = system: Amaranthus viridis; experiment: as above; conditions: 7 days after sowing, 120 g/10a, 14 days after treatment
Protocol: (§4) This test was performed with two replications per one formulation concentration plot, and 14 days after the formulation treatments, the weed suppression rate (%) was determined according to the following equation (Math. 2). Weed suppression rate (%)=(1−average dry weight (g) of plants in treated plots/average dry weight (g) of plants in untreated plots)×100 [Math. 2]
as §3

[12] = system: Echinochloa crus-galli; experiment: as above; conditions: 7 days after sowing, 120 g/10a, 14 days after treatment
Protocol: as §4, §3

| Structure (SMILES) | Weed suppression rate (%) Echinochloa crus-galli [1] [%] | Weed suppression rate (%) Lindemia pyxidaria [2] [%] | Weed suppression rate (%) Monochoria vaginalis [3] [%] | Weed suppression rate (%) Scirpus juncoides [4] [%] | Weed suppression rate (%) Echinochloa crus-galli [5] [%] | Weed suppression rate (%) Lindemia pyxidaria [6] [%] | Weed suppression rate (%) Monochoria vaginalis [7] [%] | Weed suppression rate (%) Scirpus juncoides [8] [%] | herbicidal effect, Chenopodium album [9] [%] | herbicidal effect, Crabgrass [10] [%] | herbicidal effect, Amaranthus viridis [11] [%] | herbicidal effect, Echinochloa crus-galli [12] [%] |
| --- | --- | --- | --- | --- | --- | --- | --- | --- | --- | --- | --- | --- |
| CC(C)N(C(=O)n1cnn(S(=O)(=O)c2ccccc2F)c1=O)c1ccc(F)c(F)c1F [Compound 11-405] | 100 | 100 | 100 | 100 | 100 | 100 | 100 | 100 | 60 | 90 | 70 | 90 |
| CC(C)N(C(=O)n1cnn(S(=O)(=O)c2ccc(F)cc2)c1=O)c1ccccc1 [Compound 11-464] | 100 | 80 | 60 | 80 | 90 | 60 | 80 | 90 | 50 | 90 | 50 | 60 |
| Cc1ccc(S(=O)(=O)n2ncn(C(=O)N(c3c(F)cc(F)cc3F)C(C)C)c2=O)cc1 [Compound 11-641] | 100 | 100 | 80 | 100 | 100 | 80 | 90 | 100 | 70 | 90 | 60 | 100 |
| Cc1ccc(S(=O)(=O)n2ncn(C(=O)N(c3ccc(Cl)cn3)C(C)C)c2=O)cc1 [Compound 11-661] | 100 | 100 | 80 | 90 | 100 | 100 | 100 | 90 | 0 | 70 | 0 | 90 |
| CC(C)N(C(=O)n1cnn(S(=O)(=O)c2ccc(C(C)(C)C)cc2)c1=O)c1c(F)cc(F)cc1F [Compound 11-686] | 90 | 100 | 80 | 100 | 90 | 60 | 70 | 100 | 60 | 90 | 30 | 90 |
| CC(C)N(C(=O)n1cnn(S(=O)(=O)c2cccc(C(F)(F)F)c2)c1=O)c1ccc(Cl)cc1Br [Compound 11-735] | 100 | 90 | 90 | 100 | 100 | 90 | 90 | 100 | 70 | 100 | 70 | 60 |
| CC(C)N(C(=O)n1cnn(S(=O)(=O)c2c(F)c(F)c(F)c(F)c2F)c1=O)c1c(F)cc(F)cc1F [Compound 11-815] | 100 | 100 | 80 | 100 | 100 | 80 | 70 | 70 | 80 | 100 | 70 | 70 |
| CC(C)N(C(=O)n1cnn(S(=O)(=O)c2cccs2)c1=O)c1ccccc1 [Compound 11-1011] | 90 | 80 | 80 | 90 | 90 | 80 | 80 | 90 | 80 | 90 | 90 | 80 |
| CC(C)N(C(=O)n1cnn(S(=O)(=O)c2cccs2)c1=O)c1ccc(F)c(F)c1F [Compound 11-1025] | 100 | 100 | 100 | 100 | 100 | 80 | 100 | 100 | 60 | 100 | 60 | 100 |
| CC(C)N(C(=O)n1cnn(S(=O)(=O)c2cccs2)c1=O)c1c(F)cc(F)cc1F [Compound 11-1026] | 100 | 100 | 100 | 100 | 100 | 80 | 100 | 100 | 70 | 90 | 30 | 90 |
| CC(C)N(C(=O)n1cnn(S(=O)(=O)c2cccs2)c1=O)c1ccc(Br)cc1Cl [Compound 11-1033] | 100 | 100 | 90 | 100 | 100 | 100 | 100 | 100 | 60 | 90 | 60 | 90 |
| CC(C)N(Cc1ccc(F)cc1F)C(=O)n1cnn(S(=O)(=O)c2cccs2)c1=O [Compound 11-1046] | 100 | 80 | 60 | 80 | 100 | 90 | 90 | 90 | 40 | 100 | 60 | 0 |
| CC(C)N(C(=O)n1cnn(S(=O)(=O)N(C)C)c1=O)c1ccc(Cl)cc1F [Compound 11-1072] | 90 | 80 | 80 | 90 | 100 | 90 | 60 | 90 | 80 | 90 | 90 | 80 |
